The values that follow come from PubChem BioAssay AID1259334 (Broad Institute, 2017).

The AC50 is the concentration giving half of the maximal activity seen.

The source made the active and inactive calls. Cut-off read from the data, not from the text of the source: active = AC50 below about 11 µM.

Tested on in one assay: not listed separately
In words: TNFa pathway inhibition counter-screen, B-lineage cells – dose response (AID 1259334).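 Note: cells stimulated with TNFa after compound preincubation.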 The settings on record: B cell line, TNFa signaling counterscreen reporter; at 0.0005 µM; stronger effect = lower value. (Counterscreens check selectivity or assay interference.)
As to `CCN(CC(=O)Nc1ccc(NC(C)=O)cc1)C(=O)C1CCCN(C(=O)c2ccc(Cl)cc2)C1` (stereo not drawn), the max activity was -4.62% (inactive).

Staying with this assay, now noted: B cell line, TNFa signaling counterscreen reporter; at 0.0046 µM; stronger effect = lower value.
For `COc1cccc(S(=O)(=O)N(C)C[C@H]2OCc3ccccc3-c3c(n(C)c4ccccc34)C(=O)N([C@@H](C)CO)C[C@H]2C)c1`, the max activity was 10.1% (inactive).

For `C[C@@H]1CN([C@@H](C)CO)C(=O)Cc2cc(NC(=O)Cc3cn(C)c4ccccc34)ccc2O[C@H]1CN(C)Cc1ccc(C(F)(F)F)cc1`, the max activity is 14% (inactive).

The same assay, now with this note: B cell line, TNFa signaling counterscreen reporter; at 0.0135 µM; stronger effect = lower value.
For the molecule `COc1cccc(S(=O)(=O)N(C)C[C@@H]2OCc3ccccc3-c3c(n(C)c4ccccc34)C(=O)N([C@H](C)CO)C[C@H]2C)c1`, the max activity is 14.6% (inactive).

As to `N#C[C@H]1[C@H](c2ccc(C#CC3CCCCC3)cc2)[C@H](CO)N1C(=O)Nc1ccc(F)cc1`, the max activity was 9.39% (inactive).

Consider `C[C@@H]1CN([C@@H](C)CO)C(=O)c2c(c3ccccc3n2C)-c2ccccc2CO[C@H]1CN(C)Cc1cccc(C(=O)Nc2ccccc2N)c1`, for which the max activity is 9.96% (inactive).

On to `Cc1ccccc1-c1ccc(C2[C@@H]3CN(C(=O)Nc4cccc(F)c4)C[C@H]2N3)cc1` (stereo partly drawn), for which the max activity is -14.6% (inactive).

Take `COc1ccc2c3c(n(C)c2c1)[C@H](CO)N(C(=O)Nc1ccc(F)cc1)CC31CCN(C(=O)Nc2ccc(F)cc2F)CC1`: the max activity was -5.85% (inactive).

The assay is the same for the next values; noted with them: B cell line, TNFa signaling counterscreen reporter; at 0.042 µM; stronger effect = lower value.
`CC(=O)Nc1ccc(S(=O)(=O)c2ccc(N)cc2)cc1`: the max activity was 6.36% (inactive).

In the case of `COc1ccc(CN2CC3(CN(S(=O)(=O)c4ccc(C)cc4)C3)c3c([nH]c4cc(OC)ccc34)[C@H]2CO)cc1`, the max activity was 14.8% (inactive).

As for `COc1ccc(S(=O)(=O)N(C)C[C@H]2Oc3ccc(NC(=O)Nc4ccc(C(F)(F)F)cc4)cc3C(=O)N([C@@H](C)CO)C[C@H]2C)cc1`, the max activity is 15.2% (inactive).

Take `O=S(=O)(c1cccc2cnccc12)N1CCNCC1`: the max activity is -11.3% (inactive).

The same assay, now with this note: B cell line, TNFa signaling counterscreen reporter; at 0.12 µM; stronger effect = lower value.
Turning to `COc1cccc(NC(=O)N2CC(=O)N3[C@H](CO)[C@@H](c4ccc(C#CCC5CCCC5)cc4)[C@H]3C2)c1`, the max activity is 16.8% (inactive).

Regarding `Cc1cc(C)c2c(c1)SC1=NC(c3ccccc3)(C(F)(F)F)NC(=O)N12` (stereo not drawn), the max activity is -5.9% (inactive).

The same assay, now with this note: B cell line, TNFa signaling counterscreen reporter; at 0.38 µM; stronger effect = lower value.
Turning to `Oc1ccc(Cc2ccccc2)c2cccnc12`, the max activity is -12% (inactive).

As for `c1ccc(CCSc2nccn2-c2ccccc2)cc1`, the max activity is 38% (inactive).

Consider `CC(=O)c1cc(-c2ccccc2)n(CC(=O)NCc2cccs2)c1C`, for which the max activity was 12.3% (inactive).

`CC(C)(C)c1cc(/C=C(\C#N)C(N)=S)cc(C(C)(C)C)c1O`: the max activity is -4.66% (inactive).

Still in this assay, the particulars now being: B cell line, TNFa signaling counterscreen reporter; at 1.1 µM; stronger effect = lower value.
For `C[C@H](CO)N1C[C@H](C)[C@H](CN(C)CC2CCCCC2)Oc2ccc(NC(=O)Nc3ccc(C(F)(F)F)cc3)cc2C1=O`, the max activity is 8.34% (inactive).

In the case of `C[C@@H]1CCCCO[C@@H](CN(C)S(=O)(=O)c2ccc(Cl)cc2)[C@H](C)CN([C@H](C)CO)C(=O)c2cc(NC(=O)Nc3ccc(C(F)(F)F)cc3)ccc2O1`, the max activity was 17% (inactive).

On to `Cc1noc(C)c1NC(=O)N(C)C[C@@H]1OCCCC[C@@H](C)Oc2ccc(NC(=O)Nc3ccc(C(F)(F)F)cc3)cc2C(=O)N([C@H](C)CO)C[C@H]1C`, for which the max activity is 17% (inactive).

Consider `COc1ccc(-c2cnc3c(c2)C(=O)N([C@H](C)CO)C[C@@H](C)[C@@H](CN(C)C(=O)Nc2c(C)noc2C)O3)cc1`, for which the max activity is 22.7% (inactive).

Turning to `COc1ccc2c(c1)c1ncn(Cc3ccccn3)c(=O)c1n2C`, the max activity was -8.21% (inactive).

Turning to `O=C1C(Br)=C(c2ccccc2)C(c2ccccc2)=C1c1ccccc1`, the max activity was -5.75% (inactive).

As for `COc1ccc2c3c([nH]c2c1)[C@H](CO)N(C(=O)Nc1cccc(F)c1)CC31CCN(S(=O)(=O)c2cccc(C)c2)CC1`, the max activity is 21.6% (inactive).

Consider `COc1ccc(NC(=O)O/N=C/c2c(C)nn(C(C)(C)C)c2C)cc1`, for which the max activity was 39.8% (inactive).

The assay is the same for the next values; noted with them: B cell line, TNFa signaling counterscreen reporter; at 1.2 µM; stronger effect = lower value.
Consider `N#C[C@@H]1[C@@H](c2ccccc2-c2ccc(F)cc2)[C@H](CO)N1C(=O)NC1CCCCC1`, for which the max activity was 18.3% (inactive).

The assay is the same for the next values; noted with them: B cell line, TNFa signaling counterscreen reporter; at 3 µM; stronger effect = lower value.
`C[C@H]1CN([C@@H](C)CO)C(=O)c2c(c3ccccc3n2C)-c2ccccc2CO[C@@H]1CN(C)S(=O)(=O)c1ccc([N+](=O)[O-])cc1`: the max activity is -14.8% (inactive).

Still in this assay, the particulars now being: B cell line, TNFa signaling counterscreen reporter; at 3.5 µM; stronger effect = lower value.
As for `N#C[C@H]1[C@H](c2ccc(C#Cc3ccccc3F)cc2)[C@@H](CO)N1C(=O)C1CC1`, the max activity is -17.4% (inactive).

Turning to `Cc1noc(C)c1S(=O)(=O)Nc1ccc2c(c1)C(=O)N([C@@H](C)CO)C[C@H](C)[C@@H](CN(C)C(=O)Nc1cccc3ccccc13)OCCCC[C@H](C)O2`, the max activity is -10.7% (inactive).

`C[C@@H]1CN([C@H](C)CO)C(=O)c2cc(NC(=O)Nc3cccc4ccccc34)ccc2O[C@@H](C)CCCCO[C@H]1CN(C)Cc1ccc(C(F)(F)F)cc1`: the max activity was -8.53% (inactive).

With `O=C(c1ccc(F)cc1)N1C[C@@H]2N[C@H](C1)C2c1ccc(/C=C/c2ccccc2)cc1` (stereo partly drawn), the max activity is 10.7% (inactive).

As for `O=C1C(=NO)CCc2ccccc21`, the max activity is 35.6% (inactive).

For the molecule `COC(=O)c1ccc2c(=O)[nH]c(COC(=O)c3c(-c4ccccc4)noc3C)nc2c1`, the max activity was 8.26% (inactive).

For the molecule `Cc1ccc(OCCn2cnc3c(N)ncnc32)cc1`, the max activity is -11.4% (inactive).

Consider `Cc1ccc(-c2cc(C(=O)N3CCCC(C(F)(F)F)C3)c3ccccc3n2)o1` (stereo not drawn), for which the max activity is 21.4% (inactive).

On to `O=C(C1CCC1)N1CCc2cc(S(=O)(=O)N3CCCCC3)ccc21`, for which the max activity is -31.7% (inactive).

Turning to `COCCn1c(C)cc(C(=O)COC(=O)c2ccc(Br)o2)c1C`, the max activity is -9.22% (inactive).

Take `CC12CC[C@H]3[C@@H](CCC4(O)C[C@H](O)CCC34/C=N/NC(=O)Cc3ccccc3)C1(O)CCC2C1=CC(=O)OC1` (stereo partly drawn): the max activity is 5.28% (inactive).

Regarding `CC(C)OC(=O)CC1C(=O)NCCN1C(=S)NC(=O)c1cccs1` (stereo not drawn), the max activity is 7.79% (inactive).

As for `N#C[C@H]1[C@@H](c2ccc(C#CC3CCCCC3)cc2)[C@H](CO)N1C(=O)Nc1ccc(F)cc1`, the max activity is -11.6% (inactive).

`O=C(C[C@@H]1CC[C@H]2[C@@H](COC[C@@H](O)CN2Cc2cc(F)ccc2F)O1)NCc1ccc(Oc2ccccc2)cc1`: the max activity was -19.8% (inactive).

Turning to `COc1ccc(S(=O)(=O)Nc2ccc3c(c2)C(=O)N([C@@H](C)CO)C[C@@H](C)[C@@H](CN(C)Cc2ccc(C(F)(F)F)cc2)OCCCC[C@H](C)O3)cc1`, the max activity is -16.5% (inactive).

Consider `Cc1ccc(C(CC(=O)NCc2ccco2)c2ccc(OC(C)C)cc2)cc1` (stereo not drawn), for which the max activity is 36% (inactive).

Still in this assay, the particulars now being: B cell line, TNFa signaling counterscreen reporter; at 10 µM; stronger effect = lower value.
As to `Cc1ccccc1S(=O)(=O)N1C[C@@H]2N[C@H](C1)C2c1ccc(-c2cccc(C#N)c2)cc1` (stereo partly drawn), the max activity is 22.9% (inactive).

As to `C[C@@H]1CN([C@H](C)CO)C(=O)c2c(c3ccccc3n2C)-c2ccccc2CO[C@H]1CN(C)C(=O)Nc1ccccc1C(F)(F)F`, the max activity was -6.36% (inactive).

`CCc1cnc(N2[C@H](C#N)[C@@H](c3ccccc3C3=CCCC3)[C@@H]2CO)s1`: the max activity is 9.74% (inactive).

Turning to `CCOC(=O)c1cc2c(ccn2C)n1Cc1ccc(C#N)cc1`, the max activity was 20.1% (inactive).

On to `CCCNC(=O)N1[C@H](C#N)[C@@H](c2ccc(-c3cccc(OC)c3)cc2)[C@H]1CO`, for which the max activity is 11.7% (inactive).

Turning to `c1cncc(C2=NCCC2)c1`, the max activity was 38% (inactive).

Consider `CN1C(=O)c2cc(NC(=O)c3cccc(Cl)c3)ccc2OC[C@@H]2O[C@@H](CC(=O)NC3CCCCC3)CC[C@H]21`, for which the max activity was -5.27% (inactive).

Still in this assay, the particulars now being: B cell line, TNFa signaling counterscreen reporter; at 11 µM; stronger effect = lower value.
On to `C[C@@H]1CN([C@H](C)CO)C(=O)Cc2cc(NC(=O)Cc3cn(C)c4ccccc34)ccc2O[C@H]1CN(C)Cc1ccc(C(F)(F)F)cc1`, for which the max activity was -10.7% (inactive).

A further assay concerns B cell line, TNFa signaling counterscreen reporter. Described as above.
Conditions: not given
As to `O=C(c1ccc(F)cc1)N1C[C@@H]2N[C@H](C1)C2c1ccc(/C=C/c2ccccc2)cc1` (stereo partly drawn), the AC50 is 7.15 µM.
